From patent publication US8143274B2, “1-(2H)-isoquinolone derivative” (Chugai Seiyaku Kabushiki Kaisha, priority 2004, dated 2012)

Legend:
[1] = tested on: human colon cancer cell line HCT116; test: Measurement of cell growth inhibitory activity (Cell Counting Kit-8); type: cell-based; conditions: HCT-116, 96 h, HCT116, 2,000 cells/well, cultured 4 days
Experimental: [Measurement of Cell Growth Inhibitory Activity]
Several representative examples of the compound group of the present invention were measured in terms of cell growth inhibitory activity.
Cancer cell growth inhibitory activity was measured using Cell Counting Kit-8 manufactured by Dojindo Laboratories. The human colon cancer cell line HCT116 obtained from American Type Culture Collection (Virginia, U.S.A) was inoculated in a 96-well culture plate at a concentration of 2,000 cells/well. Thereafter, a certain concentration of compound was added thereto, and the obtained mixture was then cultured at 37° C. in 5% CO2 for 4 days. On the 4th day of the culture, a Cell Counting Kit-8 solution was added to the culture product, and absorbance (measurement wavelength: 450 nm; reference wavelength: 615 nm) was measured in accordance with protocols included with the kit. Thereafter, 50% growth inhibitory concentration (IC50) was calculated.

[2] = tested on: human colon cancer cell line HCT116 transplanted subcutaneously; test: Measurement of antitumor effect in HCT116 tumor-bearing nude mouse; type: in vivo, BALB/c nude mouse; conditions: oral, administered twice (initiation date and 3 days after)
Experimental: [Measurement of Antitumor Effect]
A representative example of the compound group of the present invention was measured in terms of antitumor effect.
Such antitumor effect was examined, using a tumor-bearing mouse produced by transplanting the human colon cancer cell line HCT116 obtained from American Type Culture Collection (Virginia, U.S.A) into the inguinal subcutis of a BALB/c nude mouse purchased from Charles River Laboratories Japan, Inc. The purchased nude mouse was quarantined for 1 week. Thereafter, approximately 5×10^6 HCT116 cells were transplanted subcutaneously. When the size of a tumor thereof became about 200 mm^3, the mouse was subjected to the present experiment.
Each compound was dissolved or suspended in a solution to be administered, and 0.5 ml of the solution was orally administered. Such administration was carried out twice in total, that is, on the initiation date of administration and 3 days after the administration. The antitumor effect was calculated as a tumor growth inhibition by comparing the solution administration group with a control group in terms of tumor growth. Tumor growth inhibition(TGI)=(1−the tumor growth amount of agent-treated group/the tumor growth amount of control group)×100(%)

Structure (SMILES)	IC50 [1]	TGI (%) on day 7 ([2]; dose 12.5 mg/kg)	TGI (%) on day 7 ([2]; dose 50 mg/kg)	TGI (%) on day 7 ([2]; dose 200 mg/kg)
O=c1[nH]c(-c2ccccc2C(F)(F)F)cc2ccc(N3CCCCC3)cc12 [Compound 10, 7-piperidin-1-yl-3-(2-trifluoromethylphenyl)-2H-isoquinolin-1-one]	0.097 µM		91%	
O=c1[nH]c(-c2ccccc2C(F)(F)F)cc2ccc(N3CCC(O)CC3)cc12 [Compound 29, 7-(4-hydroxypiperidin-1-yl)-3-(2-trifluoromethylphenyl)-2H-isoquinolin-1-one]	0.052 µM			
CCOC(=O)Nc1ccc2cc(-c3ccccc3C(F)(F)F)[nH]c(=O)c2c1 [Compound 61, ethyl[1-oxo-3-(2-trifluoromethylphenyl)-1,2-dihydroisoquinolin-7-yl]carbamate]	0.021 µM			73%

More lines, main results first:

IC50 [1]	Structure (SMILES)	TGI (%) on day 7 ([2]; dose 12.5 mg/kg)	TGI (%) on day 7 ([2]; dose 50 mg/kg)	TGI (%) on day 7 ([2]; dose 200 mg/kg)
0.028 µM	O=c1[nH]c(-c2ccccc2)cc2ccc(N3CCOCC3)cc12 [Compound 8, 7-morpholin-4-yl-3-phenyl-2H-isoquinolin-1-one]	96%		
0.02 µM	O=c1[nH]c(-c2ccccc2)cc2ccc(N3CCC(CO)CC3)cc12 [Compound 21, 7-(4-hydroxymethylpiperidin-1-yl)-3-phenyl-2H-isoquinolin-1-one]			
0.018 µM	O=c1[nH]c(-c2ccccc2)cc2ccc(N3CCC(O)C3)cc12 (stereo not drawn) [Compound 36, 7-(3-hydroxypyrrolidin-1-yl)-3-phenyl-2H-isoquinolin-1-one]			
